One data set relates to HCT-8. Nature of the data set: Cytotoxicity against human HCT8 cells. It counts as functional, cell-based.
Another data set deals with A498. Nature of the data set: Cytotoxicity against human A-498 cells. It counts as functional. Particulars: Homo sapiens, A498; read-out: ED50 (the source's name).
Another data set has as its system A549. Nature of the data set: Cytotoxicity against human A549 cells. It counts as functional. To be noted: for EC50: Homo sapiens, A549, read-out: ED50 (the source's name).
The subject of the next data set is MIA PaCa-2. Nature of the data set: Cytotoxicity against human MIA PaCa2 cells. It is filed as functional. Particulars: for EC50: Homo sapiens, MIA PaCa-2, read-out: ED50 (the source's name).
For another data set, the system named is HT-29. Nature of the data set: Cytotoxicity against human HT-29 cells. It is filed as functional. Particulars: Homo sapiens, HT-29; read-out: ED50 (the source's name).
The test system of another data set is Artemia. Nature of the data set: (§1) Toxicity in brine shrimp. It is filed as organism-based. To be noted: in vivo.
The subject of the next data set is PC-3. Nature of the data set: Cytotoxicity against human PC-3 cells. It is filed as functional. Particulars: for EC50: Homo sapiens, PC-3, read-out: ED50 (the source's name).
Another data set deals with MCF7. Nature of the data set: Cytotoxicity against human MCF7 cells. It counts as functional. Particulars: Homo sapiens, MCF7; read-out: ED50 (the source's name).
The subject of data set [1] is Blattella germanica. Nature of the data set: Ratio of LT50 for Blattella germanica Muncie second instars to LT50 for Blattella germanica Jwax second instars. It is filed as functional.
Data set [2] has as its system Blattella germanica. Nature of the data set: Ratio of LT50 for Blattella germanica Muncie fifth instars to LT50 for Blattella germanica Jwax fifth instars. It counts as functional.
In a further data set the test system is KB. Nature of the data set: Cytotoxicity against human KB cells. It counts as functional, cell-based. To be noted: for IC50: Homo sapiens, KB.
Data set [3] is described as follows: as §1. It is filed as organism-based. To be noted: artemia, in vivo.

Values after ≈ are worked out from the molar mass of the structure shown. Some results are limits rather than exact numbers.

The IC50 is the concentration that inhibits the measured activity by half. Low readings indicate higher potency, high ones lower potency. With `CCCCCCCCCCCC[C@H](O)[C@@H]1CC[C@H]([C@H](O)CCCCC(O)CCCCC[C@@H](O)CC2=C[C@@](C)(O)OC2=O)O1` (stereo partly drawn), the half-inhibitory concentration (IC50) in the data set on HCT-8 is < 10 µg/mL.

`CCCCCCCCCC[C@H](O)[C@H]1CC[C@H]([C@H](O)CCCCCC(O)CCCCCCC2CC(CC(C)=O)C(=O)O2)O1` (mixture of isomers): the EC50 stood at 0.0067 µg/mL in the data set with A498; 0.21 µg/mL in the data set with A549; 0.0095 µg/mL in the data set on MIA PaCa-2; 0.35 µg/mL in the data set on HT-29; 2.24 µg/mL in the data set on PC-3; 0.0011 µg/mL with MCF7. Also, the LC50 in the data set with Artemia was found to be 9.7 ×10⁻² ug/ml.

For the molecule `CCCCC[C@H](O)[C@H](O)CCC[C@H](O)[C@H]1CC[C@H]([C@H]2CC[C@H]([C@H](O)CCCCCCCCCCCCC3=C[C@H](C)OC3=O)O2)O1` (stereo in doubt; 97) [PURPUREDIOLIN], the EC50 in the data set on A498 was determined as 1.4 µg/mL (≈ 2.19 µM); in the data set with MCF7 it was 0.92 µg/mL (≈ 1.44 µM). Also, the ED50 in the data set on A549 stood at 4.4 ×10⁻¹ ug/ml; with MIA PaCa-2, 1.4 µg/mL (≈ 2.19 µM); in the data set on PC-3, 3.5 ×10⁻¹ ug/ml. For the same molecule, in the data set with Artemia, the LC50 was 7 ×10⁻² ug/ml.

Consider `CC1(C)C(C=C(Cl)Cl)C1C(=O)OC(C#N)c1cccc(Oc2ccccc2)c1` (stereo not drawn) [ALPHA-CYPERMETHRIN], for which the Ratio in the data set with Blattella germanica [1] came out at 2.

As for `CCCCCCCCCCCC[C@H](O)[C@@H]1CC[C@@H]([C@@H](O)CCCCCCC(O)CCCCC[C@@H](O)CC2=C[C@H](C)OC2=O)O1` (stereo partly drawn) [ANNOMONTACIN], the Ratio in the data set on Blattella germanica [1] amounted to 0.6; in the data set on Blattella germanica [2] it was 0.2.

Consider `CCCCCCCCCCC(O)C1CCC(C2CCC(C(O)CCCCCCCC[C@H](O)CC3=C[C@@H](C)OC3=O)O2)O1` (stereo partly drawn) [ASIMICIN], for which the Ratio in the data set on Blattella germanica [1] is listed as 0.9; in the data set on Blattella germanica [2], 1.6.

Turning to `CNC(=O)Oc1cccc2c1OC(C)(C)O2` [BENDIOCARB], the Ratio was 2.5 in the data set on Blattella germanica [1] and 0.9 in the data set with Blattella germanica [2].

In the data set on KB, `CCCCCCC(O)CCC[C@H](O)[C@@H]1CC[C@@H]([C@@H]2CC[C@H]([C@H](O)CCCCCCCCCCCCC3=C[C@H](C)OC3=O)O2)O1` (stereo partly drawn) [CAROLIN A] registered an ED50 of 1 ×10⁻⁷ ug/ml.

With `CCCCCC(O)CCCC[C@H](O)[C@@H]1CC[C@@H]([C@@H]2CC[C@H]([C@H](O)CCCCCCCCCCCCC3=C[C@H](C)OC3=O)O2)O1` (stereo partly drawn) [CAROLIN B], the ED50 in the data set on KB is 5 ×10⁻⁶ ug/ml.

Take `CCOP(=S)(OCC)Oc1nc(Cl)c(Cl)cc1Cl` [CHLORPYRIFOS]: the values for the Ratio with Blattella germanica [1] and in the data set on Blattella germanica [2] were 3.8 and 8, respectively.

In the case of `CCCCCCCCCCCC[C@@H](O)[C@H]1CC[C@H]([C@H](O)CCCCCCCCCC[C@@H](O)CC2=C[C@@](C)(O)OC2=O)O1` [DONNAIENIN A], the concentration for half-maximal inhibition (IC50) in the data set with HCT-8 is < 10 µg/mL; in the data set on KB, < 1 µg/mL.

Take `CCCCCCCCCCCCCC[C@H](O)[C@@H](O)CC[C@H](O)[C@@H]1CC[C@@H](CCCCC[C@@H](O)CC2=C[C@@](C)(O)OC2O)O1` (stereo partly drawn) [DONNAIENIN B]: 10 µg/mL (≈ 16.3 µM) corresponded to half-maximal inhibition with KB (IC50).

For the molecule `CCCCCCCCCCCCCC[C@@H](O)[C@H](O)CC[C@H](O)[C@@H]1CC[C@@H](CCCCC[C@@H](O)CC2=C[C@H](C)OC2=O)O1` [GIGANTETROCIN A], the Ratio in the data set with Blattella germanica [1] is listed as 0.9; with Blattella germanica [2], 1.5.

Turning to `CCCCCCCCCC[C@@H](O)[C@H]1CC[C@H]([C@H](O)CCCC[C@H](O)CCCCCCC[C@@H](O)CC2=C[C@H](C)OC2=O)O1` [GLACIN A], the EC50 in the data set with A498 is 1.3 µg/mL (≈ 2.18 µM); in the data set with A549 it was 1.5 µg/mL (≈ 2.51 µM); with MIA PaCa-2, 0.0086 µg/mL (≈ 0.0144 µM); in the data set with HT-29 it was 2.3 µg/mL (≈ 3.85 µM); with PC-3, 0.0098 µg/mL (≈ 0.0164 µM); in the data set on MCF7, 0.0044 µg/mL (≈ 0.00737 µM). This molecule also registered an LC50 in data set [3] of 0.11 µg/mL (≈ 0.184 µM).

On to `CCCCCCCCCCCC[C@@H](O)[C@H]1CC[C@H]([C@H](O)CCCCC(O)CCCCC[C@@H](O)CC2=C[C@@](C)(O)OC2=O)O1` (stereo partly drawn) [GONIODONIN], for which the IC50 in the data set on HCT-8 is < 10 µg/mL.

The record behind these values is ChEMBL document CHEMBL1141818, “Annonaceous acetogenins: recent progress” (J Nat Prod, 1999).
